Data as given in patent publication US8563730B2, “Pyrazole and fused pyrazole glucokinase activators” (Takeda San Diego, Inc., priority 2008, dated 2013).
Read-outs that look alike come from different tables or passages of the source.

Biological target: T1, GK (glucokinase, residues 12-465) (Homo sapiens, UniProt P35557)
T1 construct: I.D. No. 1 corresponds to residues 12-465 of glucokinase; made in house; host or cells: DH10b-T1r E. coli
T1 sequence (P35557 with tags, fused parts or gaps isoform P35557-2): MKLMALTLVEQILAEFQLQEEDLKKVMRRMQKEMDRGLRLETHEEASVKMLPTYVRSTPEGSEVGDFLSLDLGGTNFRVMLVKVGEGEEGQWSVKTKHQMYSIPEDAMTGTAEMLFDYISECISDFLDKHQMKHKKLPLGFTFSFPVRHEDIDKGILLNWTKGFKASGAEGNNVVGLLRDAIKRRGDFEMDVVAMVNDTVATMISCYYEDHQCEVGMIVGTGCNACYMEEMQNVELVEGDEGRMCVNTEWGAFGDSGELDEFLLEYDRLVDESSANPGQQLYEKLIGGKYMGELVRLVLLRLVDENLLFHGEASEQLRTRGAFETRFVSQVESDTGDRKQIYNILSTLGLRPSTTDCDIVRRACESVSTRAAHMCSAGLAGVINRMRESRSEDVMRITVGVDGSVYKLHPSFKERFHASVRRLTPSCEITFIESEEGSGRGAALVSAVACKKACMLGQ
Assay: enzymatic glucokinase activity assay (ATP consumption, KinaseGlo luminescence)
Format: biochemical
Conditions: 5 μM ATP, 5 mM Glucose, reported as bins; for EC50: Kact = concentration that displays 50% of the maximal increase in GK activity, 60 min, room temperature, read-out: pKact
Procedure, shortened: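 E. coli-expressed recombinant GK purified by two anion-exchange steps. Reaction in 25 mM Hepes pH 7.2, 10 mM MgCl2, 1 mM DTT, 5 μM ATP, 5 mM glucose, 2% DMSO, 60 min at room temperature. ATP consumption quantified by KinaseGlo luminescence; pKact and % ACTmax derived by non-linear curve fitting.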

[1] = calculated maximal gain in GK enzyme activity at a saturating concentration of the compound, read-out: % ACTmax
[2] = read-out: % ACTmax, calculated maximal gain in GK enzyme activity at a saturating concentration of the compound

Row | SMILES | EC50 | Emax [1] | Emax [2]
1 | O=C1CC[C@H](C[C@@H](C(=O)Nc2cnccn2)n2ncc3c(S(=O)(=O)C4CC4)cccc32)C1 [Compound 74, (S)-2-(4-(cyclopropylsulfonyl)-1H-indazol-1-yl)-3-((R)-3-oxocyclopentyl)-N-(pyrazin-2-yl)propanamide] | 1.58 to 3.16 µM | 90 to 100% | –
2 | COc1ccc2c(cnn2[C@H](CC2CCOCC2)C(=O)Nc2ncc(F)s2)c1S(=O)(=O)C1CC1 [Compound 81, (R)-2-(4-(cyclopropylsulfonyl)-5-methoxy-1H-indazol-1-yl)-N-(5-fluorothiazol-2-yl)-3-(tetrahydro-2H-pyran-4-yl)propanamide] | 3.98 to 12.6 µM | 101 to 105% | –
3 | COc1ccc2c(cnn2C(CC2CCOCC2)C(=O)Nc2cnccn2)c1S(=O)(=O)C1CC1 (stereo not shown) [Compound 91, 2-(4-(cyclopropylsulfonyl)-5-methoxy-1H-indazol-1-yl)-N-(pyrazin-2-yl)-3-(tetrahydro-2H-pyran-4-yl)propanamide] | 0.398 to 1.26 µM | 101 to 105% | –
4 | O=C(Nc1cnccn1)[C@H](CC1CCOCC1)n1ncc2c(S(=O)(=O)C3CC3)cncc21 [Compound 171, (S)-2-(4-(cyclopropylsulfonyl)-1H-pyrazolo[3,4-c]pyridin-1-yl)-N-(pyrazin-2-yl)-3-(tetrahydro-2H-pyran-4-yl)propanamide] | 1.58 to 3.16 µM | – | 106 to 110%
5 | N#Cc1cccnc1NC(=O)C(CC1CCOCC1)n1ncc2c(S(=O)(=O)C3CC3)cccc21 (stereo not shown) [Compound 86, N-(3-cyanopyridin-2-yl)-2-(4-(cyclopropylsulfonyl)-1H-indazol-1-yl)-3-(tetrahydro-2H-pyran-4-yl)propanamide] | ≥ 15.8 µM | ≤ 90% | –
6 | O=C(Nc1cnccn1)[C@H](CC1CCOCC1)n1ncc2c(S(=O)(=O)C3CC3)cccc21 [Compound 89, (S)-2-(4-(cyclopropylsulfonyl)-1H-indazol-1-yl)-N-(pyrazin-2-yl)-3-(tetrahydro-2H-pyran-4-yl)propanamide] | 1.58 to 3.16 µM | 101 to 105% | –
7 | O=C(Nc1ncc(F)s1)[C@H](CC1CCOCC1)n1ncc2c(S(=O)(=O)C3CC3)cncc21 [Compound 84, (S)-2-(4-(cyclopropylsulfonyl)-1H-pyrazolo[3,4-c]pyridin-1-yl)-N-(5-fluorothiazol-2-yl)-3-(tetrahydro-2H-pyran-4-yl)propanamide] | ≤ 0.316 µM | – | 106 to 110%
8 | COc1cc(S(=O)(=O)C2CC2)c2cnn(C(CC3CCOCC3)C(=O)Nc3ccn(C)n3)c2c1 (stereo not shown) [Compound 83, 2-(4-(cyclopropylsulfonyl)-6-methoxy-1H-indazol-1-yl)-N-(1-methyl-1H-pyrazol-3-yl)-3-(tetrahydro-2H-pyran-4-yl)propanamide] | 3.98 to 12.6 µM | ≤ 90% | –
9 | O=C(Nc1ncc(F)s1)[C@@H](CC1CCCC1)n1cc(S(=O)(=O)C2CC2)cn1 [Compound 35, (R)-3-cyclopentyl-2-(4-(cyclopropylsulfonyl)-1H-pyrazol-1-yl)-N-(5-fluorothiazol-2-yl)propanamide] | ≥ 15.8 µM | ≤ 90% | –
10 | O=C(Nc1ncc(F)s1)[C@@H](CC1CCOCC1)n1cc(S(=O)(=O)C2CC2)cn1 [Compound 31, (R)-2-(4-(cyclopropylsulfonyl)-1H-pyrazol-1-yl)-N-(5-fluorothiazol-2-yl)-3-(tetrahydro-2H-pyran-4-yl)propanamide] | ≥ 15.8 µM | ≤ 90% | –
11 | COC(=O)c1cnc(NC(=O)C(CC2CCCC2)n2cc(S(=O)(=O)C3CC3)cn2)s1 (stereo not shown) [Compound 6, Methyl 2-(3-cyclopentyl-2-(4-(cyclopropylsulfonyl)-1H-pyrazol-1-yl)propanamido)thiazole-5-carboxylate] | 3.98 to 12.6 µM | ≥ 111% | –
12 | Cc1nn(C(CC2CCOCC2)C(=O)Nc2ncc(F)s2)c(C)c1S(=O)(=O)C1CC1 (stereo not shown) [Compound 27, 2-(4-(cyclopropylsulfonyl)-3,5-dimethyl-1H-pyrazol-1-yl)-N-(5-fluorothiazol-2-yl)-3-(tetrahydro-2H-pyran-4-yl)propanamide] | 1.58 to 3.16 µM | ≤ 90% | –
13 | COc1ccc2c(cnn2[C@H](CC2CCOCC2)C(=O)Nc2cnccn2)c1S(=O)(=O)C1CC1 [Compound 93, (R)-2-(4-(cyclopropylsulfonyl)-5-methoxy-1H-indazol-1-yl)-N-(pyrazin-2-yl)-3-(tetrahydro-2H-pyran-4-yl)propanamide] | ≥ 15.8 µM | ≤ 90% | –
14 | O=C(Nc1ncc(F)s1)[C@H](CC1CCOCC1)n1ncc2c(S(=O)(=O)C3CC3)cc(O)cc21 [Compound 76, (S)-2-(4-(cyclopropylsulfonyl)-6-hydroxy-1H-indazol-1-yl)-N-(5-fluorothiazol-2-yl)-3-(tetrahydro-2H-pyran-4-yl)propanamide] | ≤ 0.316 µM | 106 to 110% | –
15 | O=C(Nc1ncc(Cl)s1)C(CC1CCOCC1)n1cc2c(S(=O)(=O)C3CC3)cccc2n1 (stereo not shown) [Compound 70, N-(5-chlorothiazol-2-yl)-2-(4-(cyclopropylsulfonyl)-2H-indazol-2-yl)-3-(tetrahydro-2H-pyran-4-yl)propanamide] | 1.58 to 3.16 µM | 101 to 105% | –
16 | O=C1CC[C@H](C[C@H](C(=O)Nc2ncc(Cl)s2)n2ncc3c(S(=O)(=O)C4CC4)cccc32)C1 [Compound 114, (R)-N-(5-chlorothiazol-2-yl)-2-(4-(cyclopropylsulfonyl)-1H-indazol-1-yl)-3-((R)-3-oxocyclopentyl)propanamide] | ≤ 0.316 µM | 101 to 105% | –

Second part, led by results:

Row | EC50 | Emax [1] | SMILES | Emax [2]
17 | ≤ 0.316 µM | ≥ 111% | O=C(Nc1ncc(F)s1)[C@H](CC1CCOCC1)n1ncc2c(S(=O)(=O)C3CC3)cc(F)cc21 [Compound 123, (S)-2-(4-(cyclopropylsulfonyl)-6-fluoro-1H-indazol-1-yl)-N-(5-fluorothiazol-2-yl)-3-(tetrahydro-2H-pyran-4-yl)propanamide] | –
18 | 1.58 to 3.16 µM | 90 to 100% | Cn1ccc(NC(=O)C(CC2CCOCC2)n2ncc3c(S(=O)(=O)C4CC4)cncc32)n1 (stereo not shown) [Compound 151, 2-(4-(cyclopropylsulfonyl)-1H-pyrazolo[3,4-c]pyridin-1-yl)-N-(1-methyl-1H-pyrazol-3-yl)-3-(tetrahydro-2H-pyran-4-yl)propanamide] | –
19 | ≤ 0.316 µM | 106 to 110% | CCn1ccc(NC(=O)C(CC2CCOCC2)n2ncc3c(S(=O)(=O)C4CC4)c(F)ccc32)n1 (stereo not shown) [Compound 155, 2-(4-(cyclopropylsulfonyl)-5-fluoro-1H-indazol-1-yl)-N-(1-ethyl-1H-pyrazol-3-yl)-3-(tetrahydro-2H-pyran-4-yl)propanamide] | –
20 | ≤ 0.316 µM | 101 to 105% | Nc1cc(S(=O)(=O)C2CC2)c2cnn(C(CC3CCOCC3)C(=O)Nc3ncc(F)s3)c2c1 (stereo not shown) [Compound 142, 2-(6-amino-4-(cyclopropylsulfonyl)-1H-indazol-1-yl)-N-(5-fluorothiazol-2-yl)-3-(tetrahydro-2H-pyran-4-yl)propanamide] | –
21 | 1.58 to 3.16 µM | ≥ 111% | N#Cc1cnc(NC(=O)C(CC2CCOCC2)n2ncc3c(S(=O)(=O)C4CC4)cccc32)s1 (stereo not shown) [Compound 125, N-(5-cyanothiazol-2-yl)-2-(4-(cyclopropylsulfonyl)-1H-indazol-1-yl)-3-(tetrahydro-2H-pyran-4-yl)propanamide] | –
22 | 3.98 to 12.6 µM | 90 to 100% | Cn1ccc(NC(=O)[C@@H](CC2CCOCC2)n2ncc3c(S(=O)(=O)C4CC4)c(F)ccc32)n1 [Compound 166, (R)-2-(4-(cyclopropylsulfonyl)-5-fluoro-1H-indazol-1-yl)-N-(1-methyl-1H-pyrazol-3-yl)-3-(tetrahydro-2H-pyran-4-yl)propanamide] | –
23 | 3.98 to 12.6 µM | ≤ 90% | Cc1ccc(NC(=O)C(CC2CCOCC2)n2ncc3c(S(=O)(=O)C4CC4)cccc32)nn1 (stereo not shown) [Compound 116, 2-(4-(cyclopropylsulfonyl)-1H-indazol-1-yl)-N-(6-methylpyridazin-3-yl)-3-(tetrahydro-2H-pyran-4-yl)propanamide] | –
24 | 3.98 to 12.6 µM | ≤ 90% | N#Cc1cnc(NC(=O)[C@@H](CC2CCOCC2)n2ncc3c(S(=O)(=O)C4CC4)cccc32)s1 [Compound 137, (R)-N-(5-cyanothiazol-2-yl)-2-(4-(cyclopropylsulfonyl)-1H-indazol-1-yl)-3-(tetrahydro-2H-pyran-4-yl)propanamide] | –
25 | 0.398 to 1.26 µM | ≥ 111% | Cc1ccc2c(cnn2C(CC2CCOCC2)C(=O)Nc2ccn(C)n2)c1S(=O)(=O)C1CC1 (stereo not shown) [Compound 158, 2-(4-(cyclopropylsulfonyl)-5-methyl-1H-indazol-1-yl)-N-(1-methyl-1H-pyrazol-3-yl)-3-(tetrahydro-2H-pyran-4-yl)propanamide] | –
26 | ≤ 0.316 µM | 106 to 110% | O=C(Nc1ncc(F)s1)C(CC1CCOCC1)n1ncc2c(S(=O)(=O)C3CC3)cc(F)cc21 (stereo not shown) [Compound 115, 2-(4-(cyclopropylsulfonyl)-6-fluoro-1H-indazol-1-yl)-H-(5-fluorothiazol-2-yl)-3-(tetrahydro-2H-pyran-4-yl)propanamide] | –
